Results as given in patent US10570184B2, “GLP-1/glucagon receptor co-agonists for medical use” (Novo Nordisk A/S, priority 2014, dated 2020).
Starred links: 1 amine or outer side, 2 acyl side, 3 side chain; linkers in the order of their positions; H or OH if unused. Non-standard residues stand in square brackets, D forms with d. Residues, ends and D or L forms follow the SMILES beside them. Groups on a side chain read outwards from the residue. *: point of attachment. C18 diacid = O=C(O)CCCCCCCCCCCCCCCCC(=O)*; γGlu = O=C(O)[C@H](CCC(=O)[*:2])N[*:1]; Ac4c = NC1(C(=O)O)CCC1; AEEA = NCCOCCOCC(=O)O; Aib = CC(C)(N)C(=O)O

Key:
human GLP-1 receptor = biological target: T1, human GLP-1 receptor (Homo sapiens, UniProt P43220); assay: Assay (I)(a) GLP-1 receptor activation, CRE luciferase reporter gene assay in BHK cells; assay type: cell-based; details: without presence of serum albumin; read-out: GLP-1R EC50 (pM) [Assay (I)(a)]
T1 construct: expressed in transfected cells; host or cells: membranes of BHK cells (parent BHKTS13), clone FCW467-12A
Summary of the method: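 Stable BHK clone expressing human GLP-1 receptor with CRE-driven firefly luciferase, 5×10EE3 cells/well in medium with 2% ovalbumin and 0.2% Pluronic F-68. Compounds at 1×10EE-13 to 1×10EE-6 M final, 3 h at 37° C.; luminescence read, EC50 (pM) from four-parameter fit.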

[1] = Assay (III) ThT fibrillation assay for physical stability; assay type: physicochemical; details: 250 μM in 10 mM HEPES buffer, 37° C., shaking 960 rpm
Summary of the method: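 Glucagon derivative at 250 μM in 10 mM HEPES pH 7.5 with 1 μM ThT was incubated at 37 °C under 960 rpm orbital shaking. Fluorescence (ex 444/em 485 nm) was read every 20 min and fitted for lag time (t0−2τ) and kapp (1/τ). Recovery was soluble peptide after centrifugation/filtration, by RP-HPLC, as percent of initial.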

T1 sequence (P43220 24-463): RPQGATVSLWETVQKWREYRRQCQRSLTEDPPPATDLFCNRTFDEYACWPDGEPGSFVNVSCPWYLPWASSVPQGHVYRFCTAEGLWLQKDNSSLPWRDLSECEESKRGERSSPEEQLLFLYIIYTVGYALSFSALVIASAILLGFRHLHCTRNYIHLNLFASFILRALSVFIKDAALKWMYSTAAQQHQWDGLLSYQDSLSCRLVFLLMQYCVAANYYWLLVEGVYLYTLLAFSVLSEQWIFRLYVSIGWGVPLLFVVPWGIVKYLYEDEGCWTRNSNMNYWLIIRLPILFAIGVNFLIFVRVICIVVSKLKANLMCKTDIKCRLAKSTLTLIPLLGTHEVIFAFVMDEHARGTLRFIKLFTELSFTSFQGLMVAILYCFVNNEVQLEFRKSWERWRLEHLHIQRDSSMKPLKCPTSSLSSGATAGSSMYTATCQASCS

Row | SMILES | EC50 (human GLP-1 receptor) [pM] | ThT Assay Lag time (h) [Assay (III), pH 7.5] [1] [h]
1 | CC[C@H](C)[C@H](NC(=O)[C@H](CC(C)C)NC(=O)[C@H](Cc1c[nH]c2ccccc12)NC(=O)[C@H](CCC(N)=O)NC(=O)[C@@H](NC(=O)[C@H](Cc1ccccc1)NC(=O)[C@H](CC(=O)O)NC(=O)[C@H](CCCNC(=N)N)NC(=O)[C@H](C)NC(=O)[C@H](CCCNC(=N)N)NC(=O)[C@H](CCCNC(=N)N)NC(=O)[C@H](CO)NC(=O)[C@H](CCC(=O)O)NC(=O)[C@H](CC(C)C)NC(=O)[C@H](Cc1ccc(O)cc1)NC(=O)[C@H](CCCNC(=N)N)NC(=O)[C@H](CO)NC(=O)[C@H](Cc1ccc(O)cc1)NC(=O)[C@H](CC(=O)O)NC(=O)[C@H](CO)NC(=O)[C@@H](NC(=O)[C@H](Cc1ccccc1)NC(=O)[C@@H](NC(=O)CNC(=O)[C@H](CCC(N)=O)NC(=O)C1(NC(=O)[C@@H](N)Cc2c[nH]cn2)CCC1)[C@@H](C)O)[C@@H](C)O)C(C)C)C(=O)N[C@@H](CCCCNC(=O)CC[C@H](NC(=O)COCCOCCNC(=O)CC[C@H](NC(=O)COCCOCCNC(=O)CC[C@H](NC(=O)COCCOCCNC(=O)CC[C@H](NC(=O)CC[C@H](NC(=O)CCCCCCCCCCCCCCCCC(=O)O)C(=O)O)C(=O)O)C(=O)O)C(=O)O)C(=O)O)C(=O)N[C@H](C(N)=O)[C@@H](C)O [Chem. 36, N^ε28-[(4S)-4-carboxy-4-[[2-[2-[2-[[(4S)-4-carboxy-4-[[2-[2-[2-[[(4S)-4-carboxy-4-[[2-[2-[2-[[(4S)-4-carboxy-4-[[(4S)-4-carboxy-4-(17-carboxyheptadecanoylamino)butanoyl]amino]butanoyl]amino]ethoxy]ethoxy]acetyl]amino]butanoyl]amino]ethoxy]ethoxy]acetyl]amino]butanoyl]amino]ethoxy]ethoxy]acetyl]amino]butanoyl]-[Acb2,Arg12,Glu15,Arg20,Ile27,Lys28]-Glucagon amide] (H-H[Ac4c]QGTFTSDYSRYLESRRARDFVQWLIK([γGlu-AEEA-γGlu-AEEA-γGlu-AEEA-γGlu-γGlu-C18 diacid])T-NH2; N-terminus assumed) | 4 | 3.7
2 | CC[C@H](C)[C@H](NC(=O)[C@H](CC(C)C)NC(=O)[C@H](Cc1c[nH]c2ccccc12)NC(=O)[C@H](CCC(N)=O)NC(=O)[C@@H](NC(=O)[C@H](Cc1ccccc1)NC(=O)[C@H](CC(=O)O)NC(=O)[C@H](CCCNC(=N)N)NC(=O)[C@H](C)NC(=O)[C@H](CCCNC(=N)N)NC(=O)[C@H](CCCNC(=N)N)NC(=O)[C@H](CO)NC(=O)[C@H](CCC(=O)O)NC(=O)[C@H](CC(C)C)NC(=O)[C@H](Cc1ccc(O)cc1)NC(=O)[C@H](CCCNC(=N)N)NC(=O)[C@H](CO)NC(=O)[C@H](Cc1ccc(O)cc1)NC(=O)[C@H](CC(=O)O)NC(=O)[C@H](CO)NC(=O)[C@@H](NC(=O)[C@H](Cc1ccccc1)NC(=O)[C@@H](NC(=O)CNC(=O)[C@H](CCC(N)=O)NC(=O)C(C)(C)NC(=O)[C@@H](N)Cc1c[nH]cn1)[C@@H](C)O)[C@@H](C)O)C(C)C)C(=O)N[C@@H](CCCCNC(=O)CC[C@H](NC(=O)COCCOCCNC(=O)CC[C@H](NC(=O)COCCOCCNC(=O)CC[C@H](NC(=O)COCCOCCNC(=O)CC[C@H](NC(=O)CC[C@H](NC(=O)CCCCCCCCCCCCCCCCC(=O)O)C(=O)O)C(=O)O)C(=O)O)C(=O)O)C(=O)O)C(=O)N[C@H](C(N)=O)[C@@H](C)O [Chem. 37, N^28-[(4S)-4-carboxy-4-[[2-[2-[2-[[(4S)-4-carboxy-4-[[2-[2-[2-[[(4S)-4-carboxy-4-[[2-[2-[2-[[(4S)-4-carboxy-4-[[(4S)-4-carboxy-4-(17-carboxyheptadecanoylamino)butanoyl]amino]butanoyl]amino]ethoxy]ethoxy]acetyl]amino]butanoyl]amino]ethoxy]ethoxy]acetyl]amino]butanoyl]amino]ethoxy]ethoxy]acetyl]amino]butanoyl]-[Aib2,Arg12,Glu15,Arg20,Ile27,Lys28]-Glucagon amide] (H-H[Aib]QGTFTSDYSRYLESRRARDFVQWLIK([γGlu-AEEA-γGlu-AEEA-γGlu-AEEA-γGlu-γGlu-C18 diacid])T-NH2; N-terminus assumed) | 4 | 6.3
3 | CC[C@H](C)[C@H](NC(=O)[C@H](CC(C)C)NC(=O)[C@H](Cc1c[nH]c2ccccc12)NC(=O)[C@H](CCC(N)=O)NC(=O)[C@@H](NC(=O)[C@H](Cc1ccccc1)NC(=O)[C@H](CCC(=O)O)NC(=O)[C@H](CCC(N)=O)NC(=O)[C@H](C)NC(=O)[C@H](CCCNC(=N)N)NC(=O)[C@H](CCCNC(=N)N)NC(=O)[C@H](CO)NC(=O)[C@H](CCC(=O)O)NC(=O)[C@H](CC(C)C)NC(=O)[C@H](Cc1ccc(O)cc1)NC(=O)[C@H](CCCCN)NC(=O)[C@H](CO)NC(=O)[C@H](CC(C)C)NC(=O)[C@H](CC(=O)O)NC(=O)[C@H](CO)NC(=O)[C@@H](NC(=O)[C@H](Cc1ccccc1)NC(=O)[C@@H](NC(=O)CNC(=O)[C@H](CCC(N)=O)NC(=O)C1(NC(=O)[C@@H](N)Cc2c[nH]cn2)CCC1)[C@@H](C)O)[C@@H](C)O)C(C)C)C(=O)N[C@@H](CCCCNC(=O)CC[C@H](NC(=O)COCCOCCNC(=O)COCCOCCNC(=O)CC[C@H](NC(=O)CC[C@H](NC(=O)CCCCCCCCCCCCCCCCC(=O)O)C(=O)O)C(=O)O)C(=O)O)C(=O)N[C@H](C(N)=O)[C@@H](C)O [Chem. 38, N^ε28-[(4S)-4-carboxy-4-[[2-[2-[2-[[2-[2-[2-[[(4S)-4-carboxy-4-[[(4S)-4-carboxy-4-(17-carboxyheptadecanoylamino)butanoyl]amino]butanoyl]amino]ethoxy]ethoxy]acetyl]amino]ethoxy]ethoxy]acetyl]amino]butanoyl]-[Acb2,Leu10,Glu15,Glu21,Ile27,Lys28]-Glucagon amide] (H-H[Ac4c]QGTFTSDLSKYLESRRAQEFVQWLIK([γGlu-AEEA-AEEA-γGlu-γGlu-C18 diacid])T-NH2; N-terminus assumed) | 2 | 45.0
